# PubChem BioAssay (NCI)
#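 All cell lines were grown in 96-well plates and treated with compound for 48 hours. GI50: concentration for 50% inhibition of growth. TGI denotes the concentration required for complete inhibition of growth.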
# What was measured:
# Assay in all cases: NCI anticancer screen, dose series, 48 h
# [1] = system: SK-OV-3 ovarian
# [2] = system: MOLT-4 leukemia
# [3] = system: MALME-3M melanoma
# [4] = system: 786-0 renal
# [5] = system: SW-620 colon
# [6] = system: SK-MEL-5 melanoma
# [7] = system: RXF 393 renal
# [8] = system: SF-539 CNS
# [9] = system: EKVX NSCLC
# [10] = system: CCRF-CEM leukemia
# [11] = system: HS 578T breast
# [12] = system: IGROV1 ovarian
# [13] = system: SF-268 CNS
# [14] = system: SNB-75 CNS
# [15] = system: SN12C renal
# [16] = system: KM12 colon
# [17] = system: NCI/ADR-RES ovarian
# [18] = system: NCI-H460 lung
# [19] = system: TK-10 renal
# [20] = system: OVCAR-4 ovarian
# [21] = system: MDA-MB-231 breast
# [22] = system: LOX IMVI melanoma
# [23] = system: HL-60(TB) leukemia
# [24] = system: ACHN renal
# [25] = system: OVCAR-8 ovarian
# [26] = system: CAKI-1 renal
# [27] = system: UACC-257 melanoma
# [28] = system: RPMI-8226 leukemia
# [29] = system: A498 renal
# [30] = system: MDA-MB-435
# [31] = system: A549 NSCLC
# [32] = system: HOP-62 NSCLC
# [33] = system: NCI-H226 lung
# [34] = system: COLO 205 colon
# [35] = system: U251 CNS
# [36] = system: SNB-19 CNS
# [37] = system: K-562 leukemia
# [38] = system: OVCAR-5 ovarian
# [39] = system: UACC-62 melanoma
# [40] = system: M14 melanoma
# [41] = system: SR leukemia
# [42] = system: HCC-2998 colon
# [43] = system: HCT-116 colon
# [44] = system: DU-145 prostate
# [45] = system: OVCAR-3 ovarian
# [46] = system: SF-295 CNS
# [47] = system: SK-MEL-28 melanoma
# [48] = system: SK-MEL-2 melanoma
# [49] = system: NCI-H23 lung
# [50] = system: HT29 colon
# [51] = system: PC-3 prostate
# [52] = system: BT-549 breast
# [53] = system: HCT-15 colon
# [54] = system: UO-31 renal
# [55] = system: MCF7 breast
# [56] = system: HOP-92 NSCLC
# [57] = system: NCI-H522 lung
# [58] = system: T-47D breast
smiles,measurement,setting,value
COC(=O)c1c2c(c(C)[n+]([O-])c1C)C(=O)C(NCc1cccc(OC)c1)=CC2=O,GI50,[1],3.53 µM
same,TGI,[1],13.6 µM
same,GI50,[2],2.39 µM
same,TGI,[2],6.67 µM
same,GI50,[3],0.318 µM
same,TGI,[3],1.3 µM
same,GI50,[4],3.6 µM
same,TGI,[4],27.1 µM
same,GI50,[5],2.65 µM
same,TGI,[5],8.96 µM
same,GI50,[6],1.2 µM
same,TGI,[6],2.47 µM
same,GI50,[7],2.58 µM
same,TGI,[7],5.2 µM
same,GI50,[8],2.02 µM
same,TGI,[8],4.15 µM
same,GI50,[9],2.11 µM
same,TGI,[9],5.44 µM
same,GI50,[10],3.09 µM
same,TGI,[10],17.1 µM
same,GI50,[11],4.1 µM
same,TGI,[11],34.7 µM
same,GI50,[12],1.69 µM
same,TGI,[12],4.11 µM
same,GI50,[13],2.86 µM
same,TGI,[13],11.7 µM
same,GI50,[14],3.03 µM
same,TGI,[14],12.9 µM
same,GI50,[15],1.97 µM
same,TGI,[15],4.94 µM
same,GI50,[16],2.48 µM
same,TGI,[16],11.6 µM
same,GI50,[17],2.36 µM
same,TGI,[17],6.74 µM
same,GI50,[18],1.71 µM
same,TGI,[18],8 µM
same,GI50,[19],4.55 µM
same,TGI,[19],22.7 µM
same,GI50,[20],1.27 µM
same,TGI,[20],2.55 µM
same,GI50,[21],2.21 µM
same,TGI,[21],6.24 µM
same,GI50,[22],2.36 µM
same,TGI,[22],6.86 µM
same,GI50,[23],1.78 µM
same,TGI,[23],5.39 µM
same,GI50,[24],2.84 µM
same,TGI,[24],10.2 µM
same,GI50,[25],2.52 µM
same,TGI,[25],10.3 µM
same,GI50,[26],2.79 µM
same,TGI,[26],10.3 µM
same,GI50,[27],1.55 µM
same,TGI,[27],3.27 µM
same,GI50,[28],2.93 µM
same,TGI,[28],15.9 µM
same,GI50,[29],1.79 µM
same,TGI,[29],5.3 µM
same,GI50,[30],1.67 µM
same,TGI,[30],3.05 µM
same,GI50,[31],2.35 µM
same,TGI,[31],9.36 µM
same,GI50,[32],3.07 µM
same,TGI,[32],25.3 µM
same,GI50,[33],3.32 µM
same,TGI,[33],13 µM
same,GI50,[34],1.1 µM
same,TGI,[34],2.86 µM
same,GI50,[35],2.65 µM
same,TGI,[35],10.6 µM
same,GI50,[36],2.42 µM
same,TGI,[36],7 µM
same,GI50,[37],2.98 µM
same,TGI,[37],> 100 µM
same,GI50,[38],2.05 µM
same,TGI,[38],4.76 µM
same,GI50,[39],1.7 µM
same,TGI,[39],3.48 µM
same,GI50,[40],1.79 µM
same,TGI,[40],3.72 µM
same,GI50,[41],2.36 µM
same,TGI,[41],> 100 µM
same,GI50,[42],3.12 µM
same,TGI,[42],9.64 µM
same,GI50,[43],2.53 µM
same,TGI,[43],10 µM
same,GI50,[44],3.43 µM
same,TGI,[44],12 µM
same,GI50,[45],0.512 µM
same,TGI,[45],3.21 µM
same,GI50,[46],2.05 µM
same,TGI,[46],6.13 µM
same,GI50,[47],4.6 µM
same,TGI,[47],18.2 µM
same,GI50,[48],2.55 µM
same,TGI,[48],7.49 µM
same,GI50,[49],1.84 µM
same,TGI,[49],4.41 µM
same,GI50,[50],2.51 µM
same,TGI,[50],> 100 µM
same,GI50,[51],2.63 µM
same,TGI,[51],14.8 µM
same,GI50,[52],3.49 µM
same,TGI,[52],13.4 µM
same,GI50,[53],1.89 µM
same,TGI,[53],4.73 µM
same,GI50,[54],2.27 µM
same,TGI,[54],9.25 µM
same,GI50,[55],1.65 µM
same,TGI,[55],3.63 µM
same,GI50,[56],2.75 µM
same,TGI,[56],6.57 µM
same,GI50,[57],1.92 µM
same,TGI,[57],5.02 µM
same,GI50,[58],2.23 µM
same,TGI,[58],5.47 µM
